Where only a bound is given, the exact number is not on record here.

Assay [1] has as its system Pyricularia oryzae. Briefly: Antifungal activity against wild type Magnaporthe oryzae Hoku-1 in rice seedlings assessed as preventive value of rice blast at 5 ug/ml systemic application at 22 to 30 degC by pot test. It is filed as functional.
In assay [2] the test system is Pyricularia oryzae. Briefly: Antifungal activity against wild type Magnaporthe oryzae Hoku-1 in rice seedlings assessed as preventive value of rice blast at 5 ug/ml foliar spray at 26 degC by pot test. It is filed as functional.

With `CCC1(C(=O)NCCc2csc(Cl)c2)C(C)C1(Cl)Cl` (stereo not given), the Activity with Pyricularia oryzae [1] and with Pyricularia oryzae [2] was 65% throughout.

As to `CCC1(C(=O)NCCc2ccc(F)cc2)C(C)C1(Cl)Cl` (stereo not given), the Activity with Pyricularia oryzae [1] and in the assay with Pyricularia oryzae [2] was 40% throughout.

In the case of `CCC1(C(=O)NC(C)c2csc(Cl)c2)C(C)C1(Cl)Cl` (stereo not given), the Activity in the assay with Pyricularia oryzae [1] is reported as 40%; in the assay on Pyricularia oryzae [2], “<=40%”.

On to `CCC1(C(=O)NC(C)C2CCCCC2)C(C)C1(Cl)Cl` (stereo not given), for which the Activity in the assay on Pyricularia oryzae [1] and with Pyricularia oryzae [2] was less than 40% in each case.

Turning to `CCC1(C(=O)NCCC(F)(F)F)C(C)C1(Cl)Cl` (stereo not given), the Activity in the assay on Pyricularia oryzae [1] and in the assay on Pyricularia oryzae [2] was less than 40% each time.

Take `CC1(C)C(Cl)(Cl)C1(C)C(=O)NCCc1csc(Cl)c1` (stereo not given): the Activity with Pyricularia oryzae [1] and with Pyricularia oryzae [2] was 40% in each case.

On to `CCC1(C(=O)NCCc2ccsc2)C(C)C1(Cl)Cl` (stereo not given), for which the Activity entry is recorded as “<=40%” with Pyricularia oryzae [1] and 40% with Pyricularia oryzae [2].

Take `CCC1(C(=O)NCCCc2ccc(Cl)cc2)C(C)C1(Cl)Cl` (stereo not given): the Activity with Pyricularia oryzae [1] and in the assay on Pyricularia oryzae [2] was 40% throughout.

With `CCC1(C(=O)NCCc2ccc(C(F)(F)F)cc2)C(C)C1(Cl)Cl` (stereo not given), the Activity in the assay on Pyricularia oryzae [1] and in the assay on Pyricularia oryzae [2] was 40% each time.

With `CC(C)(C)C(C#N)C(=O)NCCc1csc(Cl)c1` (stereo not given), the Activity is given as 65% in the assay with Pyricularia oryzae [1] and 40% in the assay with Pyricularia oryzae [2].

As for `CCC1(C(=O)NCC(C)c2ccc(Cl)cc2)C(C)C1(Cl)Cl` (stereo not given), the Activity in the assay with Pyricularia oryzae [1] and in the assay on Pyricularia oryzae [2] was 40% in each case.

On to `CCC1(C(=O)NCc2ccc(Cl)cc2)C(C)C1(Cl)Cl` (stereo not given), for which the Activity is listed as 40% in the assay with Pyricularia oryzae [1] and “<=40%” in the assay with Pyricularia oryzae [2].

With `CCC1(C(=O)NCCc2cccc(Cl)c2)C(C)C1(Cl)Cl` (stereo not given), the Activity in the assay with Pyricularia oryzae [1] and in the assay with Pyricularia oryzae [2] was 40% each time.

For `CCC1(C(=O)NC(C)C2CCC2)C(C)C1(Cl)Cl` (stereo not given), the Activity in the assay with Pyricularia oryzae [1] and in the assay with Pyricularia oryzae [2] was less than 40% each time.

As for `CCC1(C(=O)NCCc2ccc(Cl)cc2Cl)C(C)C1(Cl)Cl` (stereo not given), the Activity in the assay on Pyricularia oryzae [1] and in the assay on Pyricularia oryzae [2] was 40% throughout.

Turning to `CCC1(C(=O)NC(C)c2cc(Cl)cs2)C(C)C1(Cl)Cl` (stereo not given), the Activity entry with Pyricularia oryzae [1] and with Pyricularia oryzae [2] was “<=40%” each time.

In the case of `CCC1(C(=O)NCCc2ccc(Cl)cc2)C(C)C1(Cl)Cl` (stereo not given), the Activity with Pyricularia oryzae [1] and with Pyricularia oryzae [2] was 40% in each case.

In the case of `CCC(NC(=O)C1(CC)C(C)C1(Cl)Cl)c1ccc(Cl)cc1` (stereo not given), the figures for the Activity with Pyricularia oryzae [1] and with Pyricularia oryzae [2] were less than 40% and “<=40%”, respectively.

On to `CCC1(C(=O)NC(C)C2CCCCCC2)C(C)C1(Cl)Cl` (stereo not given), for which the Activity in the assay on Pyricularia oryzae [1] and in the assay with Pyricularia oryzae [2] was less than 40% each time.

Take `CCC1(C(=O)NCCc2csc(Cl)n2)C(C)C1(Cl)Cl` (stereo not given): the Activity in the assay with Pyricularia oryzae [1] and in the assay with Pyricularia oryzae [2] was 40% each time.

Consider `CCC1(C(=O)NC(C)c2cc(Cl)c(Cl)s2)C(C)C1(Cl)Cl` (stereo not given), for which the values for the Activity entry with Pyricularia oryzae [1] and in the assay on Pyricularia oryzae [2] were “<=40%” and 40%, respectively.

For `CCC1(C(=O)NCCc2csc(Br)c2)C(C)C1(Cl)Cl` (stereo not given), the Activity is given as less than 40% in the assay on Pyricularia oryzae [1] and 40% in the assay with Pyricularia oryzae [2].

For `CCC1(C(=O)NC(C)C)C(C)C1(Cl)Cl` (stereo not given), the Activity with Pyricularia oryzae [1] and with Pyricularia oryzae [2] was less than 40% throughout.

Turning to `CC(C)(C)C(Cl)C(=O)NCCc1csc(Cl)c1` (stereo not given), the Activity in the assay on Pyricularia oryzae [1] and with Pyricularia oryzae [2] was 40% throughout.

Consider `CC(C)(C)C(Br)C(=O)NCCc1csc(Cl)c1` (stereo not given), for which the Activity in the assay with Pyricularia oryzae [1] and in the assay with Pyricularia oryzae [2] was 40% in each case.

For the compound `CCC1(C(=O)NCCc2cc(Cl)c(Cl)s2)C(C)C1(Cl)Cl` (stereo not given), the Activity in the assay on Pyricularia oryzae [1] is 40%; with Pyricularia oryzae [2], “<=40%”.

`CCC1(C(=O)Nc2ccc(Cl)cc2)C(C)C1(Cl)Cl` (stereo not given): the Activity in the assay with Pyricularia oryzae [1] and with Pyricularia oryzae [2] was less than 40% in each case.

Regarding `CCC1(C(=O)NCCc2cc(Cl)cs2)C(C)C1(Cl)Cl` (stereo not given), the Activity in the assay on Pyricularia oryzae [1] and in the assay on Pyricularia oryzae [2] was 40% each time.

On to `CCC1(C(=O)NCCc2ccccc2Cl)C(C)C1(Cl)Cl` (stereo not given), for which the Activity in the assay with Pyricularia oryzae [1] and with Pyricularia oryzae [2] was 40% throughout.

With `CC1(C)C(C(=O)NCCc2csc(Cl)c2)C1(Cl)Cl` (stereo not given), the Activity with Pyricularia oryzae [1] and in the assay on Pyricularia oryzae [2] was less than 40% in each case.

As to `CC1C(Cl)(Cl)C1(C)C(=O)NCCc1csc(Cl)c1` (stereo not given), the Activity with Pyricularia oryzae [1] and in the assay on Pyricularia oryzae [2] was 40% throughout.

As for `CCC1(C(=O)NCCc2ccc(C)cc2)C(C)C1(Cl)Cl` (stereo not given), the Activity in the assay with Pyricularia oryzae [1] and with Pyricularia oryzae [2] was less than 40% each time.

Take `CCC1(C(=O)NCCc2ccc(F)cc2F)C(C)C1(Cl)Cl` (stereo not given): the Activity in the assay with Pyricularia oryzae [1] and in the assay on Pyricularia oryzae [2] was 40% each time.

Take `CCC1(C(=O)NC(C)c2ccc(Cl)s2)C(C)C1(Cl)Cl` (stereo not given): the Activity entry in the assay with Pyricularia oryzae [1] and in the assay on Pyricularia oryzae [2] was “<=40%” throughout.

As to `CCC1(C(=O)NCCc2ccc(Br)cc2)C(C)C1(Cl)Cl` (stereo not given), the Activity with Pyricularia oryzae [1] is listed as less than 40%; in the assay on Pyricularia oryzae [2], “<=40%”.

As for `CCC1(C(=O)NCCc2ccc(Cl)c(Cl)c2)C(C)C1(Cl)Cl` (stereo not given), the Activity in the assay with Pyricularia oryzae [1] and with Pyricularia oryzae [2] was 40% throughout.

For `CCC1(C(=O)NCCc2cc(Cl)sc2Cl)C(C)C1(Cl)Cl` (stereo not given), the Activity in the assay on Pyricularia oryzae [1] was less than 40%; in the assay with Pyricularia oryzae [2], 40%.

In the case of `CCCC1(C(=O)NCCc2csc(Cl)c2)CC1(Cl)Cl` (stereo not given), the Activity with Pyricularia oryzae [1] and with Pyricularia oryzae [2] was less than 40% throughout.

Consider `CCC1(C(=O)NCCc2ccc(Cl)s2)C(C)C1(Cl)Cl` (stereo not given), for which the Activity in the assay on Pyricularia oryzae [1] and with Pyricularia oryzae [2] was 40% each time.

For the compound `CCC1(C(=O)NC(C)C2CCCC2)C(C)C1(Cl)Cl` (stereo not given), the Activity was 40% with Pyricularia oryzae [1] and less than 40% in the assay on Pyricularia oryzae [2].

Take `CCC(C)NC(=O)C1(CC)C(C)C1(Cl)Cl` (stereo not given): the Activity with Pyricularia oryzae [1] and in the assay on Pyricularia oryzae [2] was less than 40% throughout.

On to `CC[C@@]1(C(=O)N[C@H](C)c2ccc(Cl)cc2)[C@@H](C)C1(Cl)Cl` (mixture of isomers) [CARPROPAMIDE], for which the Activity in the assay on Pyricularia oryzae [1] and in the assay on Pyricularia oryzae [2] was more than 90% in each case.

Consider `CC(C)C1(C(=O)NCCc2csc(Cl)c2)CC1(Cl)Cl` (stereo not given), for which the Activity in the assay on Pyricularia oryzae [1] and in the assay with Pyricularia oryzae [2] was 40% throughout.

As for `CCC1(C(=O)NC(C)Cc2ccc(Cl)cc2)C(C)C1(Cl)Cl` (stereo not given), the Activity in the assay on Pyricularia oryzae [1] and in the assay on Pyricularia oryzae [2] was less than 40% in each case.

For `CCC1(C(=O)NCCc2cnc(Cl)s2)C(C)C1(Cl)Cl` (stereo not given), the Activity with Pyricularia oryzae [1] and in the assay on Pyricularia oryzae [2] was 40% throughout.

For the origin of these results see ChEMBL document CHEMBL3046506 (2006).
